Reference: PubChem BioAssay (NCI)
Values joined by “and” are separate entries in the source; they are usually repeats but may differ in a detail not shown here. Identical values can stand only once.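 Cultured in 96-well plates, cells were exposed to test compound for 48 hours across five concentrations. GI50 is the concentration that inhibits growth by half. TGI denotes the concentration required for complete inhibition of growth.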

What was measured:
Experiment in all cases: NCI-60 cell line screen, 48 h
786-0 renal = tested on: 786-0 renal
A498 renal = tested on: A498 renal
A549 NSCLC = tested on: A549 NSCLC
ACHN renal = tested on: ACHN renal
BT-549 breast = tested on: BT-549 breast
CAKI-1 renal = tested on: CAKI-1 renal
CCRF-CEM leukemia = tested on: CCRF-CEM leukemia
COLO 205 colon = tested on: COLO 205 colon
DU-145 prostate = tested on: DU-145 prostate
EKVX NSCLC = tested on: EKVX NSCLC
HCC-2998 colon = tested on: HCC-2998 colon
HCT-116 colon = tested on: HCT-116 colon
HCT-15 colon = tested on: HCT-15 colon
HL-60(TB) leukemia = tested on: HL-60(TB) leukemia
HOP-62 NSCLC = tested on: HOP-62 NSCLC
HOP-92 NSCLC = tested on: HOP-92 NSCLC
HS 578T breast = tested on: HS 578T breast
HT29 colon = tested on: HT29 colon
IGROV1 ovarian = tested on: IGROV1 ovarian
K-562 leukemia = tested on: K-562 leukemia
KM12 colon = tested on: KM12 colon
LOX IMVI melanoma = tested on: LOX IMVI melanoma
M14 melanoma = tested on: M14 melanoma
MALME-3M melanoma = tested on: MALME-3M melanoma
MCF7 breast = tested on: MCF7 breast
MDA-MB-231 breast = tested on: MDA-MB-231 breast
MDA-MB-435 = tested on: MDA-MB-435
MDA-N = tested on: MDA-N
MOLT-4 leukemia = tested on: MOLT-4 leukemia
NCI-H226 lung = tested on: NCI-H226 lung
NCI-H23 lung = tested on: NCI-H23 lung
NCI-H460 lung = tested on: NCI-H460 lung
NCI-H522 lung = tested on: NCI-H522 lung
NCI/ADR-RES ovarian = tested on: NCI/ADR-RES ovarian
OVCAR-3 ovarian = tested on: OVCAR-3 ovarian
OVCAR-4 ovarian = tested on: OVCAR-4 ovarian
OVCAR-5 ovarian = tested on: OVCAR-5 ovarian
OVCAR-8 ovarian = tested on: OVCAR-8 ovarian
PC-3 prostate = tested on: PC-3 prostate
RPMI-8226 leukemia = tested on: RPMI-8226 leukemia
RXF 393 renal = tested on: RXF 393 renal
SF-268 CNS = tested on: SF-268 CNS
SF-295 CNS = tested on: SF-295 CNS
SF-539 CNS = tested on: SF-539 CNS
SK-MEL-2 melanoma = tested on: SK-MEL-2 melanoma
SK-MEL-28 melanoma = tested on: SK-MEL-28 melanoma
SK-MEL-5 melanoma = tested on: SK-MEL-5 melanoma
SK-OV-3 ovarian = tested on: SK-OV-3 ovarian
SN12C renal = tested on: SN12C renal
SNB-19 CNS = tested on: SNB-19 CNS
SNB-75 CNS = tested on: SNB-75 CNS
SR leukemia = tested on: SR leukemia
SW-620 colon = tested on: SW-620 colon
T-47D breast = tested on: T-47D breast
TK-10 renal = tested on: TK-10 renal
U251 CNS = tested on: U251 CNS
UACC-257 melanoma = tested on: UACC-257 melanoma
UACC-62 melanoma = tested on: UACC-62 melanoma
UO-31 renal = tested on: UO-31 renal

COc1ccc(/C=C/C(=O)OC2CC34CCNC35CC(OC5(OC)C2OC)c2ccc(OC)c(O)c24)cc1O (centres undefined)
GI50 (786-0 renal): 22.2 µM and > 100 µM
TGI (786-0 renal): 52.3 µM and > 100 µM
TGI (A498 renal): > 100 µM
TGI (A549 NSCLC): > 100 µM
TGI (ACHN renal): > 100 µM
TGI (BT-549 breast): > 100 µM
TGI (CAKI-1 renal): > 100 µM
GI50 (CCRF-CEM leukemia): 30.8 µM and > 100 µM
TGI (CCRF-CEM leukemia): > 100 µM
GI50 (COLO 205 colon): 18.4 µM and > 100 µM
TGI (COLO 205 colon): 35.7 µM and > 100 µM
TGI (DU-145 prostate): > 100 µM
TGI (EKVX NSCLC): > 100 µM
GI50 (HCC-2998 colon): 30.6 µM and > 100 µM
TGI (HCC-2998 colon): 94.2 µM and > 100 µM
GI50 (HCT-116 colon): 47.2 µM and > 100 µM
TGI (HCT-116 colon): > 100 µM
TGI (HCT-15 colon): > 100 µM
TGI (HL-60(TB) leukemia): 62.8 µM
TGI (HOP-62 NSCLC): > 100 µM
TGI (HOP-92 NSCLC): > 100 µM
TGI (HS 578T breast): > 100 µM
GI50 (HT29 colon): 19.7 µM and > 100 µM
TGI (HT29 colon): 43.6 µM and > 100 µM
TGI (IGROV1 ovarian): > 100 µM
GI50 (K-562 leukemia): 33.7 µM and > 100 µM
TGI (K-562 leukemia): > 100 µM
GI50 (KM12 colon): 31.6 µM and > 100 µM
TGI (KM12 colon): > 100 µM
GI50 (LOX IMVI melanoma): 30.4 µM and > 100 µM
TGI (LOX IMVI melanoma): 76.5 µM and > 100 µM
TGI (M14 melanoma): > 100 µM
GI50 (MALME-3M melanoma): 11.3 µM and > 100 µM
TGI (MALME-3M melanoma): 50.9 µM and > 100 µM
TGI (MCF7 breast): > 100 µM
GI50 (MDA-MB-231 breast): 49.7 µM and > 100 µM
TGI (MDA-MB-231 breast): > 100 µM
TGI (MDA-MB-435): > 100 µM
TGI (MDA-N): > 100 µM
GI50 (MOLT-4 leukemia): 22.4 µM and > 100 µM
TGI (MOLT-4 leukemia): 93.1 µM and > 100 µM
TGI (NCI-H226 lung): > 100 µM
TGI (NCI-H23 lung): > 100 µM
TGI (NCI-H460 lung): > 100 µM
GI50 (NCI-H522 lung): 49.6 µM and > 100 µM
TGI (NCI-H522 lung): > 100 µM
TGI (NCI/ADR-RES ovarian): > 100 µM
GI50 (OVCAR-3 ovarian): 35.5 µM and > 100 µM
TGI (OVCAR-3 ovarian): > 100 µM
TGI (OVCAR-4 ovarian): > 100 µM
TGI (OVCAR-5 ovarian): > 100 µM
TGI (OVCAR-8 ovarian): > 100 µM
GI50 (PC-3 prostate): 38.9 µM and > 100 µM
TGI (PC-3 prostate): > 100 µM
GI50 (RPMI-8226 leukemia): 34.6 µM and > 100 µM
TGI (RPMI-8226 leukemia): > 100 µM
GI50 (RXF 393 renal): 21.6 µM and > 100 µM
TGI (RXF 393 renal): 65.6 µM and > 100 µM
TGI (SF-268 CNS): > 100 µM
TGI (SF-295 CNS): > 100 µM
TGI (SF-539 CNS): > 100 µM
TGI (SK-MEL-2 melanoma): > 100 µM
TGI (SK-MEL-28 melanoma): > 100 µM
TGI (SK-MEL-5 melanoma): > 100 µM
TGI (SK-OV-3 ovarian): > 100 µM
TGI (SN12C renal): > 100 µM
TGI (SNB-19 CNS): > 100 µM
GI50 (SNB-75 CNS): 14 µM and > 100 µM
TGI (SNB-75 CNS): 92.7 µM and > 100 µM
GI50 (SR leukemia): 25.4 µM and > 100 µM
TGI (SR leukemia): > 100 µM
TGI (SW-620 colon): > 100 µM
TGI (T-47D breast): > 100 µM
TGI (TK-10 renal): > 100 µM
GI50 (U251 CNS): 38.2 µM and > 100 µM
TGI (U251 CNS): > 100 µM
TGI (UACC-257 melanoma): > 100 µM
TGI (UACC-62 melanoma): > 100 µM
TGI (UO-31 renal): > 100 µM
